Laboratory results as given in ChEMBL document CHEMBL5338767, “A Molecular Toolbox of Positron Emission Tomography Tracers for General Anesthesia Mechanism Research” (J Med Chem, 2023).

How the values were obtained:
[1] = Stability in Sprague-Dawley rat plasma assessed as parent compound remaining measured after 60 mins; assay type: ADME, cell-free; settings: read-out: Stability
[2] = Drug distribution in Sprague-Dawley rat adrenal gland at 1 mg/kg, iv measured at 10 mins in presence of ETO; assay type: ADME, organism-based; settings: in vivo
[3] = Stability in Sprague-Dawley rat plasma assessed as parent compound remaining measured after 30 mins; assay type: ADME, cell-free; settings: read-out: Stability
[4] = Lipophilicity, logP of the compound; settings: octanol/water
[5] = Drug distribution in Sprague-Dawley rat liver at 1 mg/kg, iv measured at 10 mins in presence of ETO; assay type: ADME, organism-based; settings: in vivo
[6] = Stability in Sprague-Dawley rat plasma assessed as parent compound remaining measured after 10 mins; assay type: ADME, cell-free; settings: read-out: Stability
[7] = Lipophilicity, logD of compound at pH 7; settings: buffer
[8] = Dissociation constant, pKa of the compound; assay type: physicochemical
[9] = Drug distribution in rat brain assessed as maximum binding; assay type: ADME, tissue-based; settings: in vivo
[10] = Drug distribution in rat brain assessed as dissociation constant; assay type: ADME, tissue-based
[11] = molecular target: T1, Alpha-2C adrenergic receptor (Homo sapiens, UniProt P18825); test: Binding affinity to alpha2C receptor (unknown origin)
T1 sequence (P18825 whole entry): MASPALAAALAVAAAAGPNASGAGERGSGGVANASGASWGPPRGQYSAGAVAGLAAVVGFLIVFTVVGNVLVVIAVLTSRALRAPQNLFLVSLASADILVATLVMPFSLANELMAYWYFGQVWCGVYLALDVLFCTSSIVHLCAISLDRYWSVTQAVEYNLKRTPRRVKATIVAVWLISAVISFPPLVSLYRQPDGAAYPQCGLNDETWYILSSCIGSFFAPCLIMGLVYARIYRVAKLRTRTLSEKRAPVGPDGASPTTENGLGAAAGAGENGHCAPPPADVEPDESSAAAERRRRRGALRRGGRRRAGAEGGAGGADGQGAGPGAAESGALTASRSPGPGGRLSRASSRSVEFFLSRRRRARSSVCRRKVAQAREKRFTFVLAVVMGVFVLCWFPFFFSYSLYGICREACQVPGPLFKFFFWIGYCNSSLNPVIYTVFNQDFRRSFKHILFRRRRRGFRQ

[12] = molecular target: T2, Alpha-2B adrenergic receptor (Homo sapiens, UniProt P18089); test: Binding affinity to alpha2B receptor (unknown origin)
T2 sequence (P18089 whole entry): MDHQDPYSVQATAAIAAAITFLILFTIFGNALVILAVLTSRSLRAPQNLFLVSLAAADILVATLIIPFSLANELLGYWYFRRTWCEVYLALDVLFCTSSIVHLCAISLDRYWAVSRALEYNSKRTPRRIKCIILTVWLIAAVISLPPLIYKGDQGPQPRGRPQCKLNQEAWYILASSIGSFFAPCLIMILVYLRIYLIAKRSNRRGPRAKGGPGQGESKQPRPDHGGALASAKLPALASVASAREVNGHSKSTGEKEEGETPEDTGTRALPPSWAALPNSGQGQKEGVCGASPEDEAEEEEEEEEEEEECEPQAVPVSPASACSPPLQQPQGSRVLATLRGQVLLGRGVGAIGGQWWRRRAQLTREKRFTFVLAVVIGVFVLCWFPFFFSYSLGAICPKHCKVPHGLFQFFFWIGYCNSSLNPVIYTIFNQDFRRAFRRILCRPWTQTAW

[13] = molecular target: T3, Alpha-2A adrenergic receptor (Homo sapiens, UniProt P08913); test: Binding affinity to alpha2A receptor (unknown origin)
T3 sequence (P08913 whole entry): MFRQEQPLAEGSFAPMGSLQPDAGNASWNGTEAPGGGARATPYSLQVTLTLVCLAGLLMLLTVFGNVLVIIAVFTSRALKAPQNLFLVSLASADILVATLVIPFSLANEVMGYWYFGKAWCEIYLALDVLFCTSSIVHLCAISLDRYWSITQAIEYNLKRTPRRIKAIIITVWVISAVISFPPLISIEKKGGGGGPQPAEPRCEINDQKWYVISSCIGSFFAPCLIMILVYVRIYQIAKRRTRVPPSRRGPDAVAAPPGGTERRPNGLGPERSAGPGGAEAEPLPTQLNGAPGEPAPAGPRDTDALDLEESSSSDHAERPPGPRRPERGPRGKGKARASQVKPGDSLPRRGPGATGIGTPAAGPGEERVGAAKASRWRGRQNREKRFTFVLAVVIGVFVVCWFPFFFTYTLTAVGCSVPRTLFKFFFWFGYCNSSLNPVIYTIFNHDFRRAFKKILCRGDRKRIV

[14] = molecular target: Neuronal acetylcholine receptor; alpha4/beta2 (Homo sapiens, UniProt P17787+P43681); test: Binding affinity to nACh alpha4beta2 receptor (unknown origin) assessed as inhibition constant; assay type: protein-complex assay
Sequence of Neuronal acetylcholine receptor; alpha4/beta2 (P17787 whole entry): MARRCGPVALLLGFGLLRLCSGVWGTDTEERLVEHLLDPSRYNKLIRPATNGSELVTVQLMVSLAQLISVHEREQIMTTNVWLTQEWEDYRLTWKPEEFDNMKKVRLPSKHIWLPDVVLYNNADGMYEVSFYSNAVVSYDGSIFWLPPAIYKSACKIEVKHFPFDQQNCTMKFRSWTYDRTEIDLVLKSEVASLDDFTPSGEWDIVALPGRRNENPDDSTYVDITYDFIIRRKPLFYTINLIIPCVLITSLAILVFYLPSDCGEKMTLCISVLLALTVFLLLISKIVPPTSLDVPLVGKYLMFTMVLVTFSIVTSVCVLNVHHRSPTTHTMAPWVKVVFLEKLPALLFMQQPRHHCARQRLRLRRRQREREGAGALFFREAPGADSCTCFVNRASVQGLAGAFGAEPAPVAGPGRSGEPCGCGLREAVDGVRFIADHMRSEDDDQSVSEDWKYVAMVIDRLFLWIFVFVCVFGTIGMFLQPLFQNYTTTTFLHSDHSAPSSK
Sequence of Neuronal acetylcholine receptor; alpha4/beta2 (P43681 whole entry): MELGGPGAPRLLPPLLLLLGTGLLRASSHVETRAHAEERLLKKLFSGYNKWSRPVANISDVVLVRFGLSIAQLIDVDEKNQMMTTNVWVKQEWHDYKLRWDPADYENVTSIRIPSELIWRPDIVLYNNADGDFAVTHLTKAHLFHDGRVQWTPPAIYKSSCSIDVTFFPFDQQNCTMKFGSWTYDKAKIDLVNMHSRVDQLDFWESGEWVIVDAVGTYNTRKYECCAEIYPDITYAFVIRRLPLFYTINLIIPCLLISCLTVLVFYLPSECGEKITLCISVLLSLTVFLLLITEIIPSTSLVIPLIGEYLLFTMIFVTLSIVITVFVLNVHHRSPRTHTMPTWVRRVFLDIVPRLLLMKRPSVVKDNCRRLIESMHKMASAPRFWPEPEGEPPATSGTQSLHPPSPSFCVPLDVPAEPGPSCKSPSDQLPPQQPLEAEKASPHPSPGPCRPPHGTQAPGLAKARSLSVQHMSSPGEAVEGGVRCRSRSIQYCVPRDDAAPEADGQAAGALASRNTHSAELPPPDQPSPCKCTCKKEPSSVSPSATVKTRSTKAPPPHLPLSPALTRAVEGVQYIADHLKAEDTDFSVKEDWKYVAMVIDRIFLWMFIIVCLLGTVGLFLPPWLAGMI

[15] = molecular target: Neuronal acetylcholine receptor subunit alpha-7 (Homo sapiens, UniProt P36544); test: Binding affinity to human nACh alpha7 receptor assessed as inhibition constant
Sequence of Neuronal acetylcholine receptor subunit alpha-7 (Homo sapiens, UniProt P36544) (P36544 whole entry): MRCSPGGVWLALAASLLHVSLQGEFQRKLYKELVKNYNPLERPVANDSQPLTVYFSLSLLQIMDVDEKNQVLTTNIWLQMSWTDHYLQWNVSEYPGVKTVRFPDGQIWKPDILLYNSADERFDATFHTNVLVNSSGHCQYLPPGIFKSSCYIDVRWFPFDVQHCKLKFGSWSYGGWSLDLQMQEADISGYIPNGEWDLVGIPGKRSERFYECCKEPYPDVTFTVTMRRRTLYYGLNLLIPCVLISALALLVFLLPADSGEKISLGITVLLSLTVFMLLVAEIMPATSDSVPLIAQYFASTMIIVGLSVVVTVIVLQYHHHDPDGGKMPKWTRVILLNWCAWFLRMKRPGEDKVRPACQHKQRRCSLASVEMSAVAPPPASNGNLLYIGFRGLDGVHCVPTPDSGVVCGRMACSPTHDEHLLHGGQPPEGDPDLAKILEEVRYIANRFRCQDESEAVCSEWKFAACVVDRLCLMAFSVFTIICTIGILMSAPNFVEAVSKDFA

[16] = molecular target: Neuronal acetylcholine receptor subunit alpha-7 (Rattus norvegicus, UniProt Q05941); test: Binding affinity to rat nACh alpha7 receptor assessed as inhibition constant
Sequence of Neuronal acetylcholine receptor subunit alpha-7 (Rattus norvegicus, UniProt Q05941) (Q05941 whole entry): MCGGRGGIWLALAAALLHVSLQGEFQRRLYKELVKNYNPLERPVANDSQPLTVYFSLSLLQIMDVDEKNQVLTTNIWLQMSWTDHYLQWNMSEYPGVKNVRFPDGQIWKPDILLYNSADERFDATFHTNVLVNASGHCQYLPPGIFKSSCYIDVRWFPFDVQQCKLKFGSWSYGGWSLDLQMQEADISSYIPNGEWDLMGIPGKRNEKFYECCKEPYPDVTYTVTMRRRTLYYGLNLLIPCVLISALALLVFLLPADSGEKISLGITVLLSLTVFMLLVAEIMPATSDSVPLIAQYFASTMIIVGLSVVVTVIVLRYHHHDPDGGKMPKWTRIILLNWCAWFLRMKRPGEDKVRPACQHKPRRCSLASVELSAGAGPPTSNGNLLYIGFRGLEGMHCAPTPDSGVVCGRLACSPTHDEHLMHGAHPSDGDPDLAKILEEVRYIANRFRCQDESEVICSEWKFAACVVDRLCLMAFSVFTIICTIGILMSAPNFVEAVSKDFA

[17] = Stability in human plasma incubated upto 60 mins; assay type: ADME, cell-free; settings: read-out: Stability

| Structure (SMILES) | logP [4] | logD [7] | pKa [8] | also measured |
| --- | --- | --- | --- | --- |
| COC(=O)c1cncn1[C@H](C)c1ccc([18F])cc1 | 1.65 | 2.82 | 4.08 | remaining at 1 h [1]: 2%; Drug uptake [2]: 39%; remaining at 0.5 h [3]: 8%; Drug uptake [5]: 66%; remaining at 10 min [6]: 13% |
| [18F]c1ccc(OC[C@H]2CCN2)cn1 | 0.66 | -2.02 | 9.01 | Bmax [9]: 3.7 pmol/g; Kd [10]: 0.028 nM |
| [11CH3]OCc1cccnc1N1CCN(C[C@H]2COc3ccccc3O2)CC1 [ORM-13070 C-11] | 2.51 | 1.94 | 7.23 | Kd [11]: 3.8 nM; Kd [12]: 23 nM; Kd [13]: 109 nM |
| [18F]c1ccc(-c2nnc(N3CCN4CCC3CC4)o2)cc1 | 2.34 | -0.82 | 8.44 | Ki [14]: > 10000 nM |
| [11CH3]c1ccc(OC(=O)N2CCN3CCC2CC3)cc1 | 1.95 | 1.89 | 8.19 | Ki [15]: 14 nM; Ki [16]: 22 nM; remaining at 1 h [17]: > 80% |
